Data on four molecules can be found in article PMC3907537, “Evaluation of the Endothelin Receptor Antagonists Ambrisentan, Bosentan, Macitentan, and Sitaxsentan as Hepatobiliary Transporter Inhibitors and Substrates in Sandwich-Cultured Human Hepatocytes” (PLoS ONE, 2014).

pIC50: −log10 of the molar value.

The first assay deals with T1, BSEP (Homo sapiens, UniProt O95342).
T1 construct: purchased Solvo Biotechnology, Budaors, Hungary; host or cells: Sf9 insect cells (membrane vesicles)
T1 sequence (O95342 whole entry): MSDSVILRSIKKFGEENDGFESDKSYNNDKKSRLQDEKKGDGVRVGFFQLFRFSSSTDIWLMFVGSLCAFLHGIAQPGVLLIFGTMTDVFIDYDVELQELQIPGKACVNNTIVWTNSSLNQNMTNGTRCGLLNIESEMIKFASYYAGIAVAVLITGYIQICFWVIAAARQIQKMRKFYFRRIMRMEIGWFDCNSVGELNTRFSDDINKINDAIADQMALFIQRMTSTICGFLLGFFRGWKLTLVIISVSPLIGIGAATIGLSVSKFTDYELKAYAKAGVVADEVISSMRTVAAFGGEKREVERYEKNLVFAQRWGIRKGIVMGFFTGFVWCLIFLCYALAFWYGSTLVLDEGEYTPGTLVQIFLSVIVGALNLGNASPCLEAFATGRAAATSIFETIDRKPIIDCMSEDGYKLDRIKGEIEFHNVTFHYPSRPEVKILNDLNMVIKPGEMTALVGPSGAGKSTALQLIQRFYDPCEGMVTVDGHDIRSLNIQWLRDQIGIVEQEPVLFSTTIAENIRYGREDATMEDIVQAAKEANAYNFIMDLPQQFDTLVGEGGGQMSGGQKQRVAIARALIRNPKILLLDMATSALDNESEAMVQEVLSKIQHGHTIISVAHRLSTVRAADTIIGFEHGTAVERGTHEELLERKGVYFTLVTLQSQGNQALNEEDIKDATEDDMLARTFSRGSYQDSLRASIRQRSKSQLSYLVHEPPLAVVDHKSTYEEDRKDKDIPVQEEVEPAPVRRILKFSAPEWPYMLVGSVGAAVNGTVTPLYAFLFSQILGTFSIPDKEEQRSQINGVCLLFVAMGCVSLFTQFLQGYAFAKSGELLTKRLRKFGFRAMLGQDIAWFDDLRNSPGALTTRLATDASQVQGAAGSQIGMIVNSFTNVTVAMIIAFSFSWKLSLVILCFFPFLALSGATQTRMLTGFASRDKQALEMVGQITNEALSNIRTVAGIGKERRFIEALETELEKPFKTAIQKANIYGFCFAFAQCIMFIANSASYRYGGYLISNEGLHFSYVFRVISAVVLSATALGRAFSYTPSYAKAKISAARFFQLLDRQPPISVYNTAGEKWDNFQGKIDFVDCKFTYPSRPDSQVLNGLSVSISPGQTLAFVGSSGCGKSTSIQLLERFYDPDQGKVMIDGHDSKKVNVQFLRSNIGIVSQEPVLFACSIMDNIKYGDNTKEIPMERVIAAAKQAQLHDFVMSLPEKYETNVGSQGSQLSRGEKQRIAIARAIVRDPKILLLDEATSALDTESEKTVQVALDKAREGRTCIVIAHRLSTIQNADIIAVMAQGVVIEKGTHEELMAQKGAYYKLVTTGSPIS
The assay can be described thus: BSEP inhibition, taurocholate transport in Sf9 membrane vesicles. The note with it: taurocholate 2 µM, mean ± SD of 3 independent studies in duplicate, tested 0.14–100 µM. Format: biochemical. An excerpt:
Chinese Hamster Ovary (CHO) cells were obtained from Professor B. Stieger’s laboratory at University of Zurich, Zurich, Switzerland. Madin-Darby Canine Kidney strain II (MDCKII) cells were obtained from Nederlands Kanker Instituut (NKI), Amsterdam, Netherlands. NTCP-CHO cells, BSEP and MRP2 membrane vesicles were developed and validated at Solvo Biotechnology, Budaors, Hungary.
BSEP and MRP2 inhibition was studied in membrane vesicles isolated from sf9 insect cells overexpressing the respective transporters. Vesicular transport inhibition assays used test compounds incubated with membrane vesicle preparations (total protein: 50 µg/well) and probe substrates, taurocholate (2 µM) for BSEP or Estradiol-17-beta-glucuronide (0.2 µM) for MRP2, in the absence or presence of ATP. Reaction mixtures were preincubated for 15 min at 37°C. Reactions were started by the addition of 25 µL of 12 mM MgATP or assay buffer (for background controls), preincubated separately. Reactions were stopped after 5 min by the addition of 200 µL of ice-cold washing buffer and immediate filtration via glass fiber filters mounted to a 96-well plate (filter plate). The filters were washed, dried and the amount of substrate inside the filtered vesicles determined by liquid scintillation. Cyclosporin A (20 µM) or benzbromarone (100 µM), for BSEP or MRP2, respectively, were used as positive control inhibitors. Control membranes lacking transporter expression were used as negative control.
All assays were performed in duplicate. IC50 was defined as the test article concentration needed to inhibit the maximal transporter specific accumulation by 50%. IC50 values were calculated using non-linear fitting of % inhibition versus concentration to a sigmoidal curve with a variable Hill Coefficient using GraphPad Prism 5 (GraphPad Software Inc., San Diego, CA).
In the case of `COC(c1ccccc1)(c1ccccc1)[C@H](Oc1nc(C)cc(C)n1)C(=O)O` [ambrisentan], the pIC50 was under 4.00.

On to `COc1ccccc1Oc1c(NS(=O)(=O)c2ccc(C(C)(C)C)cc2)nc(-c2ncccn2)nc1OCCO` [bosentan], for which the pIC50 is 4.38.

The molecule `CCCNS(=O)(=O)Nc1ncnc(OCCOc2ncc(Br)cn2)c1-c1ccc(Br)cc1` [macitentan] gave a pIC50 of 4.92.

In a further assay the test system is sandwich-cultured human hepatocytes. The assay can be described thus: Effect of ERAs on endogenous glycocholic acid (GCA) distribution in sandwich-cultured human hepatocytes. Format: cell-based. The conditions noted are these: 1 µM, 24 h; mean ± standard error, n=3 human livers. On the procedure: Sandwich-cultured human hepatocytes were obtained from Celsis/IVT (Baltimore, MD) or Life Technologies (Durham, NC). Donors were male (n = 3) and female (n = 1) between the ages of 31 and 62 years old. Hepatic uptake, biliary excretion and in vitro biliary clearance (Clb) were determined using the B-CLEAR® hepatocyte sandwich culture model as described by Liu et al., 1999 [34]. In this system, hepatocytes form functional bile canalicular networks while maintaining the expression and function of key uptake and efflux transporters. The canalicular system of bile pockets remains separate from the cellular culture media due to tight junctions between cells. The integrity of these tight junctions is maintained in the presence of calcium (Plus (+) buffer) while in the absence of calcium (Minus (−) buffer), these tight junctions open and release the contents of the canalicular network into the media.
Incubation solutions containing ERA (1, 10 and 100 µM) were prepared in cell culture medium. On the sixth day of culturing of the sandwich-cultured hepatocytes, cell culture medium was removed from the wells and incubation solutions containing the test ERAs were added to the cells. The cells were incubated with ERA solution for 24 h at 37°C. After the exposure, the incubation solutions were removed and the cells were rinsed with Plus (+) or Minus (−) buffer. The buffer solutions were then removed and the cells were incubated with fresh Plus (+) or Minus (−) buffer for 5 min at 37°C. Following this 5 minute incubation, the buffer solutions were collected and any remaining buffers were removed. The cells were then washed three times with ice-cold Plus (+) buffer and the plates were frozen at −80°C until processed for bioanalysis.
Study samples were stored in their original 24-well plates at −80°C until prepared for analysis. A volume of 500 µL of cell lysis solution (70∶30 methanol:water) containing 25 nM internal standard was added to each well and mixed for 20 min of mixing. The volume in each well was then transferred to a 96-well filter plate stacked on a Greiner deep well collection plate. The filter plate/collection plate was then centrifuged at 2000 rcf for 5 min. The filtrate was then evaporated to dryness under nitrogen. Samples were reconstituted in 200 µL of sample diluent (60∶40 methanol:10 mM ammonium acetate, native pH), sealed, and placed on a plate shaker for 15 min. These samples were then transferred to a Whatman 96-well 0.45 µm PVDF filter plate stacked on a Costar 3956 plate (HPLC injection plate), centrifuged at 2000 rcf for 2–3 min, and sealed with a silicon cap mat prior to LC-MS/MS analysis. d8-TCA standard spiking solutions were prepared in 50∶50 methanol:water. For a given lysate standard or control, 10 µL was added to each well of a previously frozen analytical plate. Standards representing 0.5–100 pmoles/well and QC’s at the LLQ and ULQ were prepared. These lysate standards and controls were then further processed as described above for unknown study samples. Prepared samples were filtered and analyzed by LC-MS/MS using a Shimadzu binary HPLC system (Columbia, MD) and tandem mass spectrometry using Thermo Electron TSQ® Quantum Discovery MAX™ (Waltham, MA) with an Ion Max ESI source operating in negative ion electrospray ionization mode. Results for unknowns and QCs were calculated using a standard curve based on an internal standard processing method.
Statistical comparisons across ERA treatments were performed using analysis of variance (ANOVA) with Fisher’s PLSD post hoc analysis (Statview 5.0, SAS Institute, Cary NC); statistical significance was considered to be P<0.05. All mass values were normalized to mg protein by taking the average protein mass in the taurocholate plate determined using a BCA protein assay (Pierce Biotechnology, Rockford, IL). […]
For `Cc1cc2c(cc1CC(=O)c1sccc1S(=O)(=O)Nc1onc(C)c1Cl)OCO2` [sitaxsentan], the “GCA BEI (% Control)” value is reported as 100.0 ± 18.3 % Control, the “GCA Cellular Accumulation (% Control)” value amounted to 90.9 ± 6.5 % Control, the “GCA Medium Concentration (% Control)” value worked out at 104.0 ± 8.1 % Control and the “GCA Total Accumulation (% Control)” value came to 98.6 ± 16.1 % Control.

`COC(c1ccccc1)(c1ccccc1)[C@H](Oc1nc(C)cc(C)n1)C(=O)O` [ambrisentan]: the “GCA BEI (% Control)” value was found to be 90.3 ± 13.5 % Control, the “GCA Cellular Accumulation (% Control)” value is on record as 93.0 ± 9.3 % Control, the “GCA Medium Concentration (% Control)” value was 101.0 ± 3.5 % Control and the “GCA Total Accumulation (% Control)” value came to 87.2 ± 10.8 % Control.

As for `COc1ccccc1Oc1c(NS(=O)(=O)c2ccc(C(C)(C)C)cc2)nc(-c2ncccn2)nc1OCCO` [bosentan], the “GCA BEI (% Control)” value was 85.9 ± 12.6 % Control, the “GCA Cellular Accumulation (% Control)” value is reported as 78.4 ± 14.5 % Control, the “GCA Medium Concentration (% Control)” value turned out to be 99.6 ± 2.1 % Control and the “GCA Total Accumulation (% Control)” value is recorded as 71.9 ± 12.9 % Control.

`CCCNS(=O)(=O)Nc1ncnc(OCCOc2ncc(Br)cn2)c1-c1ccc(Br)cc1` [macitentan]: the “GCA BEI (% Control)” value came to 96.9 ± 17.6 % Control, the “GCA Cellular Accumulation (% Control)” value amounted to 81.7 ± 10.7 % Control, the “GCA Medium Concentration (% Control)” value stood at 101.0 ± 3.3 % Control and the “GCA Total Accumulation (% Control)” value was 84.6 ± 12.6 % Control.

The assay is the same for the next values; noted with them: 10 µM, 24 h; mean ± standard error, n=3 human livers.
Regarding `Cc1cc2c(cc1CC(=O)c1sccc1S(=O)(=O)Nc1onc(C)c1Cl)OCO2` [sitaxsentan], the “GCA BEI (% Control)” value is given as 84.2 ± 6.0 % Control, the “GCA Cellular Accumulation (% Control)” value is 69.8 ± 11.1 % Control, the “GCA Medium Concentration (% Control)” value is recorded as 92.8 ± 3.8 % Control and the “GCA Total Accumulation (% Control)” value is 60.3 ± 7.2 % Control.

With `COC(c1ccccc1)(c1ccccc1)[C@H](Oc1nc(C)cc(C)n1)C(=O)O` [ambrisentan], the “GCA BEI (% Control)” value came out at 75.4 ± 8.6 % Control, the “GCA Cellular Accumulation (% Control)” value is listed as 88.2 ± 15.5 % Control, the “GCA Medium Concentration (% Control)” value is recorded as 91.3 ± 7.5 % Control and the “GCA Total Accumulation (% Control)” value came out at 73.0 ± 8.4 % Control.

`COc1ccccc1Oc1c(NS(=O)(=O)c2ccc(C(C)(C)C)cc2)nc(-c2ncccn2)nc1OCCO` [bosentan]: the “GCA BEI (% Control)” value was 32.3 ± 30.1 % Control, the “GCA Cellular Accumulation (% Control)” value worked out at 55.1 ± 14.4 % Control, the “GCA Medium Concentration (% Control)” value is on record as 85.5 ± 6.3 % Control and the “GCA Total Accumulation (% Control)” value was determined as 35.9 ± 5.3 % Control.

On to `CCCNS(=O)(=O)Nc1ncnc(OCCOc2ncc(Br)cn2)c1-c1ccc(Br)cc1` [macitentan], for which the “GCA BEI (% Control)” value turned out to be 54.9 ± 10.3 % Control, the “GCA Cellular Accumulation (% Control)” value was determined as 62.7 ± 10.5 % Control, the “GCA Medium Concentration (% Control)” value was 88.9 ± 1.8 % Control and the “GCA Total Accumulation (% Control)” value was 46.5 ± 8.3 % Control.

Still in this assay, the particulars now being: 100 µM, 24 h; mean ± standard error, n=3 human livers.
As to `Cc1cc2c(cc1CC(=O)c1sccc1S(=O)(=O)Nc1onc(C)c1Cl)OCO2` [sitaxsentan], the “GCA BEI (% Control)” value was 61.7 ± 12.2 % Control, the “GCA Cellular Accumulation (% Control)” value is on record as 18.6 ± 6.9 % Control, the “GCA Medium Concentration (% Control)” value is recorded as 75.0 ± 3.5 % Control and the “GCA Total Accumulation (% Control)” value worked out at 14.4 ± 5.4 % Control.

Consider `COC(c1ccccc1)(c1ccccc1)[C@H](Oc1nc(C)cc(C)n1)C(=O)O` [ambrisentan], for which the “GCA BEI (% Control)” value came to 65.9 ± 6.8 % Control, the “GCA Cellular Accumulation (% Control)” value is recorded as 48.8 ± 10.8 % Control, the “GCA Medium Concentration (% Control)” value came out at 95.7 ± 6.7 % Control and the “GCA Total Accumulation (% Control)” value stood at 39.1 ± 11.9 % Control.

`COc1ccccc1Oc1c(NS(=O)(=O)c2ccc(C(C)(C)C)cc2)nc(-c2ncccn2)nc1OCCO` [bosentan]: the “GCA BEI (% Control)” value was found to be 35.4 ± 13.9 % Control, the “GCA Cellular Accumulation (% Control)” value is reported as 25.6 ± 8.4 % Control, the “GCA Medium Concentration (% Control)” value was determined as 77.1 ± 10.1 % Control and the “GCA Total Accumulation (% Control)” value is recorded as 17.4 ± 6.1 % Control.

Take `CCCNS(=O)(=O)Nc1ncnc(OCCOc2ncc(Br)cn2)c1-c1ccc(Br)cc1` [macitentan]: the “GCA BEI (% Control)” value came out at 39.4 ± 12.3 % Control, the “GCA Cellular Accumulation (% Control)” value came to 38.1 ± 13.6 % Control, the “GCA Medium Concentration (% Control)” value came to 52.6 ± 1.2 % Control and the “GCA Total Accumulation (% Control)” value is on record as 24.7 ± 7.8 % Control.

Another assay deals with NTCP.
Test: not given
Also noted: method as in PMID 20628435. The note with it: concentrations tested 2, 20, and 100 µM, Hartman et al. ref 29; cited from earlier work.
`Cc1cc2c(cc1CC(=O)c1sccc1S(=O)(=O)Nc1onc(C)c1Cl)OCO2` [sitaxsentan]: the “inhibition of NTCP” value is given as “inhibited”.

For the molecule `COC(c1ccccc1)(c1ccccc1)[C@H](Oc1nc(C)cc(C)n1)C(=O)O` [ambrisentan], the “inhibition of NTCP” value is reported as “did not”.

As for `COc1ccccc1Oc1c(NS(=O)(=O)c2ccc(C(C)(C)C)cc2)nc(-c2ncccn2)nc1OCCO` [bosentan], the “inhibition of NTCP” value is on record as “inhibited”.
